# From US20200172913A1, “PEPTIDES AND NANOPARTICLES FOR INTRACELLULAR DELIVERY OF VIRUS” (priority 2017, published 2020)
# Where no end group is shown, it is not given here. PEG = not defined here; βAla = NCCC(=O)O
# Tests used:
# 293 T cells = assay: AAV-2/PEP-1 peptide particle stability (serum, heparin), GFP expressing cells by flow cytometry; assay type: cell-based
# Protocol: Stock solutions of peptides were prepared at 2 mg/mL in distilled water or 5% DMSO and sonicated for 10 min in a water bath sonicator then diluted just before use. AAV-2 encoding green fluorescent protein at MOI of 300 was pre-incubated in low salt medium with PEP-1 peptides containing either a specific targeting motif, a PEG or Dopamine moiety at a concentration of 50 μM for 30 min. The AAV-2/peptide particle stability was evaluated in different conditions. Particles were incubated for 1 hour in DMEM medium containing 10, 20 to 50% serum (FSC) or in the presence of heparin (5 and 10 μg). Then AAV alone or PEP-1/AAV complexes were added to cultured 293 T cells in a 24 well plate format. Cells were treated with either free AAV-2 or Peptide/AAV-2 complexes for 4 h, and then the medium was replaced with fresh medium. Viral mediated transgene expression was monitored 2 days post-infection. GFP expressing cells were detected by flow cytometry.
# HepG2 and HCN2 cells [1] = assay: AAV-1-GFP transduction with CPPs, statements for both cell lines; assay type: cell-based, human; conditions: for impact on AAV-1 infectivity: 1 μM concentration, both cell lines; for share of the final improvement obtained with 200 μM: 10 μM concentration of CPP, AAV-1, both cell lines
# Protocol: (§1) In this example different AAV serotypes including AAV 1, AAV2, AAV5, AAV6, AAV8 and AAV9 were tested against human hepatocytes (HepG2) and human neuronal cells (HCN2) in the presence or in the absence of CPPs including ADGN-103a, ADGN-103b, ADGN-100, ADGN-109, ADGN-106, PEP-1, PEP-2, CADY, and TAT-HA2.
# (§2) AAV-1, AAV-2, AAV-5, and AAV-6 viruses encoding green fluorescent protein were obtained from Cell Biolabs Inc and AAV-8 from Vector Biolabs. Stock solutions of virus were obtained at 1χ10^13 GC/ml in PBS/0.01% and diluted 50-fold to 2×10^11 GC/ml before use.
# (§3) AAV-1, AAV-2, AAV-5, and AAV6 encoding green fluorescent protein were used at low MOI of 500 (1-2×10^7 PFU) and AAV-8 at MOI of 1000 (2-4×10^7 PFU). HepG2 and HCN2 cells (1 10^6 cells per well) were cultured in a 24 well plate culture dish format. For MOI of 1000, 5 μl of AAV virus diluted solutions were preincubated in PBS with increasing concentration of CPPs ranging from 0.1 to 200 μM for 30 min. For MOI of 500, 2.5 μl of AAV virus diluted solutions were preincubated in PBS with increasing concentration of CPPs ranging from 0.1 to 200 μM for 30 min. 200 μl of AAV or CPP/AAV complex solutions were added to cultured cells (1×10^6 cells per well). Cells are treated with either free AAV or CPP/AAV complexes for 4 h. and then the medium is replaced with fresh medium.
# (§4) Viral mediated transgene expression was monitored by flow cytomety 2 days post-infection in HepG2 and Human neuronal HCN2. The percentage of GFP expressing cells were detected by flow cytometry and the increase of AAV infectivity was calculated based on the number of GFP-positive cells. Results are reported in FIGS. 5A-5D, 6A-6D, 7A-7D, 8A-8D, and 9A-9D.
# HCN2 cells [2] = assay: AAV-8-GFP transduction with CPPs, flow cytometry; assay type: cell-based, human; conditions: 200 μM CPP, AAV-8 MOI of 1000, HCN2; 5% in the absence of CPP
# Protocol: as §1, §2, §3, §4
# HepG2 cells [3] = assay: AAV-8-GFP transduction with CPPs, flow cytometry; assay type: cell-based, human; conditions: 200 μM CPP, AAV-8 MOI of 1000, HepG2; 5% in the absence of CPP
# Protocol: as §1, §2, §3, §4
# HCN2 cells [4] = assay: AAV-2-GFP transduction with CPPs, flow cytometry; assay type: cell-based, human; conditions: 200 μM CPP; for cells expressing GFP: AAV-2 MOI of 500, HCN2, 4% in the absence of CPP; for increase of AAV-2 efficiency: MOI of 500, HCN2
# Protocol: as §1, §2, §3, §4
# HepG2 cells [5] = assay: AAV-2-GFP transduction with CPPs, flow cytometry; assay type: cell-based, human; conditions: 200 μM CPP; for cells expressing GFP: AAV-2 MOI of 500, HepG2, 4% in the absence of CPP
# Protocol: as §1, §2, §3, §4
# HCN2 cells [6] = assay: AAV-1-GFP transduction with CPPs, flow cytometry; assay type: cell-based, human; conditions: 200 μM CPP; for cells expressing GFP: AAV-1 MOI of 500, HCN2, 5% in the absence of CPP; for increase of AAV-1 efficiency: MOI of 500, HCN2
# Protocol: as §1, §2, §3, §4
# HepG2 cells [7] = assay: AAV-1-GFP transduction with CPPs, flow cytometry; assay type: cell-based, human; conditions: 200 μM CPP; for cells expressing GFP: AAV-1 MOI of 500, HepG2, 5% in the absence of CPP
# Protocol: as §1, §2, §3, §4
# HepG2 and HCN2 cells [8] = assay: AAV-8-GFP transduction with CPPs, statements for both cell lines; assay type: cell-based, human; conditions: for impact on AAV-8 infectivity: 1 μM concentration, both cell lines; for share of the final improvement obtained at 200 μM: 10 μM concentration, AAV-8, both cell lines
# Protocol: as §1, §2, §3, §4
# HepG2 and HCN2 cells [9] = assay: AAV-5-GFP transduction with CPPs, statements for both cell lines; assay type: cell-based, human; conditions: for impact on AAV-5 infectivity: 1 μM concentration, both cell lines; for share of the final improvement obtained at 200 μM: 10 μM concentration, AAV-5, both cell lines
# Protocol: as §1, §2, §3, §4
# HepG2 and HCN2 cells [10] = assay: AAV-6-GFP transduction with CPPs, statements for both cell lines; assay type: cell-based, human; conditions: for impact on AAV-6 infectivity: 1 μM concentration, both cell lines; for share of the final improvement obtained at 200 μM: 10 μM concentration, AAV-6, both cell lines
# Protocol: as §1, §2, §3, §4
# HCN2 cells [11] = assay: AAV-6-GFP transduction with CPPs, flow cytometry; assay type: cell-based, human; conditions: for cells expressing GFP: 200 μM of CPP, AAV-6 MOI of 500, HCN2, 4% in the absence of CPP; for increase of AAV-6 efficiency: 200 μM CPP, MOI of 500, HCN2
# Protocol: as §1, §2, §3, §4
# HepG2 cells [12] = assay: AAV-6-GFP transduction with CPPs, flow cytometry; assay type: cell-based, human; conditions: 200 μM CPP; for cells expressing GFP: AAV-6 MOI of 500, HepG2, 5% in the absence of CPP; for increase of AAV-6 efficiency: MOI of 500, HepG2
# Protocol: as §1, §2, §3, §4
# HepG2 and HCN2 cells [13] = assay: AAV-2-GFP transduction with CPPs, statements for both cell lines; assay type: cell-based, human; conditions: for impact on AAV-2 infectivity: 1 μM concentration, both cell lines; for share of the final improvement obtained with 200 μM: 10 μM concentration of CPP, AAV-2, both cell lines
# Protocol: as §1, §2, §3, §4
# HCN2 cells [14] = assay: AAV-5-GFP transduction with CPPs, flow cytometry; assay type: cell-based, human; conditions: 200 μM CPP; for cells expressing GFP: AAV-5 MOI of 500, HCN2, 5% in the absence of CPP; for increase of AAV-5 efficiency: MOI of 500, HCN2
# Protocol: as §1, §2, §3, §4
# HepG2 cells [15] = assay: AAV-5-GFP transduction with CPPs, flow cytometry; assay type: cell-based, human; conditions: 200 μM CPP; for cells expressing GFP: AAV-5 MOI of 500, HepG2, 5% in the absence of CPP
# Protocol: as §1, §2, §3, §4
Substance,impact on AAV-1 infectivity (HepG2 and HCN2 cells [1]),share of the final improvement obtained with 200 μM (HepG2 and HCN2 cells [1]),cells expressing GFP (HCN2 cells [2]),cells expressing GFP (HepG2 cells [3]),cells expressing GFP (HCN2 cells [4]),cells expressing GFP (HepG2 cells [5]),cells expressing GFP (HCN2 cells [6]),cells expressing GFP (HepG2 cells [7]),impact on AAV-8 infectivity (HepG2 and HCN2 cells [8]),share of the final improvement obtained at 200 μM (HepG2 and HCN2 cells [8]),impact on AAV-5 infectivity (HepG2 and HCN2 cells [9]),share of the final improvement obtained at 200 μM (HepG2 and HCN2 cells [9]),impact on AAV-6 infectivity (HepG2 and HCN2 cells [10]),share of the final improvement obtained at 200 μM (HepG2 and HCN2 cells [10]),cells expressing GFP (HCN2 cells [11]),cells expressing GFP (HepG2 cells [12]),impact on AAV-2 infectivity (HepG2 and HCN2 cells [13]),share of the final improvement obtained with 200 μM (HepG2 and HCN2 cells [13]),cells expressing GFP (HCN2 cells [14]),cells expressing GFP (HepG2 cells [15]),other results
"PEG-βAKETWWETWWTEWSQPKKKRKV ({PEG-βAla}-KETWWETWWTEWSQPKKKRKV; reading uncertain) [PEP-1-PEG, PEP-1 mono-PEGylated with 5 kDa PEG at the N-terminal beta Alanine]",,,,,,,,,,,,,,,,,,,,,"effect of the modification on AAV/PEP-1 complex stability in serum (293 T cells; high concentration of serum): stabilized; reduction of the level of GFP expressing cells (efficacy) (293 T cells; particles incubated 1 hour in 50% serum, 50 μM peptide, AAV-2 MOI of 300): 30%; increase of efficacy (293 T cells; standard conditions (no serum, no heparin), vs unmodified PEP-1): 40%"
"βAKWFERWFREWPRKRR (not fully specified (residue 1, N-terminus); printed as βAKWFERWFREWPRKRR) [ADGN-103a]",significant impact,about 60%,49%,52%,71%,98%,75%,76%,significant impact,about 60%,significant impact,about 50%,significant impact,about 70%,65%,94%,significant impact,about 70%,45%,60%,
"βAKWRSAGWRWRLWRVRSWSR (not fully specified (residue 1, N-terminus); printed as βAKWRSAGWRWRLWRVRSWSR) [ADGN-100]",significant impact,about 60%,23%,26%,59%,57%,52%,50%,significant impact,about 60%,significant impact,about 50%,significant impact,about 70%,48%,59%,significant impact,about 70%,22%,39%,"increase of AAV-2 efficiency (HCN2 cells [4]): 15 fold; increase of AAV-2 efficiency (HepG2 cells [5]; MOI of 500, HepG2): 20 fold; increase of AAV-1 efficiency (HCN2 cells [6]): 12 fold; increase of AAV-1 efficiency (HepG2 cells [7]; MOI of 500, HepG2): 13 fold; increase of AAV-6 efficiency (HCN2 cells [11]): 15 fold; increase of AAV-6 efficiency (HepG2 cells [12]): 17 fold; increase of AAV-5 efficiency (HCN2 cells [14]): 5 fold; increase of AAV-5 efficiency (HepG2 cells [15]; MOI of 500, HepG2): 10 fold"
"βAKWWERWWREWPRKRR (not fully specified (residue 1, N-terminus); printed as βAKWWERWWREWPRKRR) [ADGN-103b]",significant impact,about 60%,58%,60%,81%,96%,78%,81%,significant impact,about 60%,significant impact,about 50%,significant impact,about 70%,67%,98%,significant impact,about 70%,48%,64%,increase of AAV-6 efficiency (HCN2 cells [11]): 22 fold; increase of AAV-6 efficiency (HepG2 cells [12]): 30 fold
"βALWRALWRLWRSLWRLLWKA (not fully specified (residue 1, N-terminus); printed as βALWRALWRLWRSLWRLLWKA) [ADGN-106]",,,,,,,,,,,,,,,,,,,,,increase of AAV-2 efficiency (HCN2 cells [4]): 7 fold; increase of AAV-1 efficiency (HCN2 cells [6]): 7 fold; increase of AAV-6 efficiency (HCN2 cells [11]): 7 fold; increase of AAV-6 efficiency (HepG2 cells [12]): about 10 fold; increase of AAV-5 efficiency (HCN2 cells [14]): 4 fold
